In patent US20250186396A1, “COMPOSITIONS AND METHODS FOR THE TREATMENT OF GLIOBLASTOMA WITH A DUAL TARGETING ANTI-TUMOR COMPOSITION” (Northwestern University, priority 2023, published 2025):

Tested on: THP-1 macrophages
Assay: Transwell migration assay of THP-1 macrophages with U87 conditioned media
Type: cell-based
Settings: conditioned media from U87 cells pretreated with SR9009 5 μM
Procedure: Migration assay. To study the relationship between macrophages and microglia, HMC3 microglia or THP-1 macrophages were seeded into the 24-well plates (receiver wells) using serum-containing culture medium for 24 hours to reach 40-60% confluence and then stimulated with or without U87 cell CM for additional 24 hours. After that, cells were washed with PBS twice and cultured in serum-free culture medium. For upper chambers, THP-1 macrophages (2×10^5) and HMC3 microglia (5×10^4) were suspended in serum-free culture medium and seeded into […] (Corning, #3421) and […] (Corning, #3422) 24-well Transwell inserts, respectively. To study the role of GBM cells on microglia migration, HMC3 microglia (5×10^4) were suspended in serum-free culture medium and seeded into 8.0 μm inserts. SIM-A9 microglia (1×10^5) and THP-1 macrophages (1×10^5) were suspended in serum-free culture medium and seeded into 5.0 μm inserts. The CM from LOX-depleted or inhibited U87 cells, LOX-overexpressed GL261 cells, or SR9009-treated U87 cells were added to the receiver wells, respectively. After 10 hours, migrated cells were fixed with 4% PFA (ThermoFisher, #J61899.AK) for 30 minutes and stained with crystal violet (Sigma-Aldrich, #C-3886) for another 30 minutes. The membrane inserts were washed with water and imaged under an EVOS microscope. The number of transferred cells was counted using ImageJ.

## CCOC(=O)N1CCC(CN(Cc2ccc(Cl)cc2)Cc2ccc([N+](=O)[O-])s2)C1 (stereo not shown) [SR9009]
  migration ability of THP-1 macrophages: did not change
